# According to article PMC5218480 (PLoS ONE, 2017):
# Tested on: MV-4-11 cells
# Assay: Gene expression microarray analysis (Affymetrix PrimeView) and GSEA
# Type: cell-based, human
# Parameters: RFU PODN (11730768_x_at) / Fold change /veh PODN (11730768_x_at) / RFU LINC00158 (11744669_a_at) / Fold change /veh LINC00158 (11744669_a_at) / RFU DUSP10 (11751237_a_at) / Fold change /veh DUSP10 (11751237_a_at) / RFU ID3 (11757404_x_at) / Fold change /veh ID3 (11757404_x_at) / RFU PLEKHG5 (11737974_s_at) / Fold change /veh PLEKHG5 (11737974_s_at) / RFU LRRC4B (11730491_at) / Fold change /veh LRRC4B (11730491_at) / RFU GIMAP4 (11747438_a_at) / Fold change /veh GIMAP4 (11747438_a_at) / RFU KRT8 (11758183_x_at) / Fold change /veh KRT8 (11758183_x_at) / RFU CNN1 (11734310_a_at) / Fold change /veh CNN1 (11734310_a_at) / RFU VPS37D (11726825_at) / Fold change /veh VPS37D (11726825_at) / RFU C10orf10 (11716522_x_at) / Fold change /veh C10orf10 (11716522_x_at) / RFU KIR2DL2 /// KIR2DL4 /// KIR2DL5A /// KIR2DL5B /// KIR2DS1 /// KIR2DS2 /// KIR2DS3 /// KIR2DS4 /// KIR3DL3 /// KIR3DL3 /// KIR3DS1 (11738374_at) / Fold change /veh KIR2DL2 /// KIR2DL4 /// KIR2DL5A /// KIR2DL5B /// KIR2DS1 /// KIR2DS2 /// KIR2DS3 /// KIR2DS4 /// KIR3DL3 /// KIR3DL3 /// KIR3DS1 (11738374_at) / RFU C1QL1 (11718748_at) / Fold change /veh C1QL1 (11718748_at) / RFU TMPRSS4 (11747572_a_at) / Fold change /veh TMPRSS4 (11747572_a_at) / RFU HAMP (11756126_x_at) / Fold change /veh HAMP (11756126_x_at) / RFU RNFT2 (11725882_a_at) / Fold change /veh RNFT2 (11725882_a_at) / RFU NR4A2 (11747474_a_at) / Fold change /veh NR4A2 (11747474_a_at) / RFU ABCC12 (11746883_a_at) / Fold change /veh ABCC12 (11746883_a_at) / RFU TMEM136 (11760407_x_at) / Fold change /veh TMEM136 (11760407_x_at) / RFU CLDN22 /// WWC2 (11732394_at) / Fold change /veh CLDN22 /// WWC2 (11732394_at) / RFU HLA-DPB1 (11760878_x_at) / Fold change /veh HLA-DPB1 (11760878_x_at) / RFU SPINT1 (11716480_a_at) / Fold change /veh SPINT1 (11716480_a_at) / RFU GAP43 (11754022_s_at) / Fold change /veh GAP43 (11754022_s_at) / RFU A4GNT (11735810_at) / Fold change /veh A4GNT (11735810_at) / RFU PRB3 (11715151_x_at) / Fold change /veh PRB3 (11715151_x_at) / RFU TUBB4B (11761932_at) / Fold change /veh TUBB4B (11761932_at) / RFU CAPN14 (11732068_a_at) / Fold change /veh CAPN14 (11732068_a_at) / RFU TMCC2 (11721928_a_at) / Fold change /veh TMCC2 (11721928_a_at) / RFU IRGQ (11745062_a_at) / Fold change /veh IRGQ (11745062_a_at) / RFU FAM174B (11720279_a_at) / Fold change /veh FAM174B (11720279_a_at) / RFU TMPRSS4 (11748680_a_at) / Fold change /veh TMPRSS4 (11748680_a_at) / RFU FAM212B (11763350_a_at) / Fold change /veh FAM212B (11763350_a_at) / RFU PLEKHG5 (11743358_a_at) / Fold change /veh PLEKHG5 (11743358_a_at) / RFU ZSCAN30 (11745921_a_at) / Fold change /veh ZSCAN30 (11745921_a_at) / RFU CMKLR1 (11741424_a_at) / Fold change /veh CMKLR1 (11741424_a_at) / RFU LOC101060620 /// MAPK8IP1 (11723275_at) / Fold change /veh LOC101060620 /// MAPK8IP1 (11723275_at) / RFU SPTSSB (11747773_x_at) / Fold change /veh SPTSSB (11747773_x_at) / RFU PRSS12 (11739890_at) / Fold change /veh PRSS12 (11739890_at) / RFU BIN1 (11741810_x_at) / Fold change /veh BIN1 (11741810_x_at) / RFU WNT11 (11732464_a_at) / Fold change /veh WNT11 (11732464_a_at) / RFU C10orf10 (11716521_a_at) / Fold change /veh C10orf10 (11716521_a_at) / RFU C5orf56 (11738089_at) / Fold change /veh C5orf56 (11738089_at) / RFU CYB561 (11721691_x_at) / Fold change /veh CYB561 (11721691_x_at) / RFU ANKRD19P (11752326_a_at) / Fold change /veh ANKRD19P (11752326_a_at) / RFU OR2T12 /// OR2T33 /// OR2T8 (11738714_s_at) / Fold change /veh OR2T12 /// OR2T33 /// OR2T8 (11738714_s_at) / RFU VCAN (11748164_a_at) / Fold change /veh VCAN (11748164_a_at) / RFU JSRP1 (11732532_at) / Fold change /veh JSRP1 (11732532_at) / RFU KRTAP10-11 (11738290_x_at) / Fold change /veh KRTAP10-11 (11738290_x_at) / RFU MYO3A (11730013_a_at) / Fold change /veh MYO3A (11730013_a_at) / RFU EBF3 (11725865_a_at) / Fold change /veh EBF3 (11725865_a_at) / RFU CAMK2N1 (11719241_x_at) / Fold change /veh CAMK2N1 (11719241_x_at) / RFU C5orf56 (11738088_a_at) / Fold change /veh C5orf56 (11738088_a_at) / RFU OLFML3 (11715873_a_at) / Fold change /veh OLFML3 (11715873_a_at) / RFU LOC100653217 /// NTM (11731650_a_at) / Fold change /veh LOC100653217 /// NTM (11731650_a_at) / RFU MAPK11 (11762145_a_at) / Fold change /veh MAPK11 (11762145_a_at) / RFU FIZ1 (11724087_x_at) / Fold change /veh FIZ1 (11724087_x_at) / RFU OASL (11726364_x_at) / Fold change /veh OASL (11726364_x_at) / RFU SOX15 (11748057_x_at) / Fold change /veh SOX15 (11748057_x_at) / RFU CD79A (11719716_a_at) / Fold change /veh CD79A (11719716_a_at) / RFU HIST1H1D (11736915_at) / Fold change /veh HIST1H1D (11736915_at) / RFU CASKIN2 (11723855_a_at) / Fold change /veh CASKIN2 (11723855_a_at) / RFU LOC730098 (11760151_x_at) / Fold change /veh LOC730098 (11760151_x_at) / RFU OR4N2 (11742367_at) / Fold change /veh OR4N2 (11742367_at) / RFU PRRT2 (11749266_a_at) / Fold change /veh PRRT2 (11749266_a_at) / RFU SNX32 (11753110_a_at) / Fold change /veh SNX32 (11753110_a_at) / RFU CDHR5 (11726645_a_at) / Fold change /veh CDHR5 (11726645_a_at) / RFU RCAN1 (11760418_a_at) / Fold change /veh RCAN1 (11760418_a_at) / RFU FAM167A (11723789_a_at) / Fold change /veh FAM167A (11723789_a_at) / RFU FAM26E (11764081_at) / Fold change /veh FAM26E (11764081_at) / RFU ISYNA1 (11749810_s_at) / Fold change /veh ISYNA1 (11749810_s_at) / RFU ACY1 (11761880_at) / Fold change /veh ACY1 (11761880_at) / RFU 11764098_at / Fold change /veh 11764098_at / RFU SAMD14 (11745864_x_at) / Fold change /veh SAMD14 (11745864_x_at) / RFU NPB (11741838_a_at) / Fold change /veh NPB (11741838_a_at) / RFU TMPRSS6 (11731388_a_at) / Fold change /veh TMPRSS6 (11731388_a_at) / RFU KRTAP10-2 (11738614_at) / Fold change /veh KRTAP10-2 (11738614_at) / RFU ARHGAP8 /// PRR5-ARHGAP8 (11727945_x_at) / Fold change /veh ARHGAP8 /// PRR5-ARHGAP8 (11727945_x_at) / RFU KRTAP5-7 /// NADSYN1 (11734609_at) / Fold change /veh KRTAP5-7 /// NADSYN1 (11734609_at) / RFU RASL12 (11751679_a_at) / Fold change /veh RASL12 (11751679_a_at) / RFU CDKN2B (11736163_a_at) / Fold change /veh CDKN2B (11736163_a_at) / RFU PRF1 (11729649_at) / Fold change /veh PRF1 (11729649_at) / RFU, ZNF638 /// ZNF638-IT1 / Fold change vs veh, ZNF638 /// ZNF638-IT1 / RFU, PANK3 / Fold change vs veh, PANK3 / RFU, SH3YL1 / Fold change vs veh, SH3YL1 / RFU, ZEB2 / Fold change vs veh, ZEB2 / RFU, NRIP1 / Fold change vs veh, NRIP1 / RFU, PTTG1IP / Fold change vs veh, PTTG1IP / RFU, CAPN2 / Fold change vs veh, CAPN2 / RFU, MED14 / Fold change vs veh, MED14 / RFU, SNORA58 / Fold change vs veh, SNORA58 / RFU, C1orf63 / Fold change vs veh, C1orf63 / RFU, LRRFIP1 / Fold change vs veh, LRRFIP1 / RFU, NDUFAF7 / Fold change vs veh, NDUFAF7 / RFU, SLC12A2 / Fold change vs veh, SLC12A2 / RFU, IBTK / Fold change vs veh, IBTK / RFU, ESF1 / Fold change vs veh, ESF1 / Fold change vs veh, TMEM50B / RFU, TAOK1 / Fold change vs veh, TAOK1 / RFU, ACBD3 / Fold change vs veh, ACBD3 / RFU, TMA16 / Fold change vs veh, TMA16 / RFU, RWDD3 / Fold change vs veh, RWDD3 / RFU, BCAT1 / Fold change vs veh, BCAT1 / RFU, EDEM3 / Fold change vs veh, EDEM3 / RFU, TMEM33 / Fold change vs veh, TMEM33 / RFU, WDR75 / Fold change vs veh, WDR75 / RFU, AHCTF1 / Fold change vs veh, AHCTF1 / RFU, TFRC / Fold change vs veh, TFRC / RFU, ZDHHC17 / Fold change vs veh, ZDHHC17 / RFU, NOM1 / Fold change vs veh, NOM1 / RFU, ARL8B / Fold change vs veh, ARL8B / RFU, ZBTB11 / Fold change vs veh, ZBTB11 / RFU, TAMM41 / Fold change vs veh, TAMM41 / RFU, KIAA1704 /// LOC100996395 / Fold change vs veh, KIAA1704 /// LOC100996395 / RFU, ING1 / Fold change vs veh, ING1 / RFU, TRMT61B / Fold change vs veh, TRMT61B / RFU, FUBP3 / Fold change vs veh, FUBP3 / RFU, TP53 / Fold change vs veh, TP53 / RFU, TNKS2 / Fold change vs veh, TNKS2 / RFU, ZFP14 / Fold change vs veh, ZFP14 / RFU, ACTR2 / Fold change vs veh, ACTR2 / RFU, PPP3R1 / Fold change vs veh, PPP3R1 / RFU, PIK3R1 / Fold change vs veh, PIK3R1 / RFU, HNRNPA1 / Fold change vs veh, HNRNPA1 / RFU, RNF170 / Fold change vs veh, RNF170 / RFU, ZNF28 / Fold change vs veh, ZNF28 / RFU, RNGTT / Fold change vs veh, RNGTT / RFU, OGT / Fold change vs veh, OGT / RFU, BRD1 / Fold change vs veh, BRD1 / RFU, MARS / Fold change vs veh, MARS / RFU, ZNF655 / Fold change vs veh, ZNF655 / RFU, FAHD1 / Fold change vs veh, FAHD1 / RFU, BDP1 / Fold change vs veh, BDP1 / RFU, LRRCC1 / Fold change vs veh, LRRCC1 / RFU, ARID1A / Fold change vs veh, ARID1A / RFU, ZNF146 / Fold change vs veh, ZNF146 / RFU, ZNF330 / Fold change vs veh, ZNF330 / RFU, GPN3 / Fold change vs veh, GPN3 / RFU, C9orf123 / Fold change vs veh, C9orf123 / RFU, N4BP2L2 / Fold change vs veh, N4BP2L2 / RFU, ARFIP1 / Fold change vs veh, ARFIP1 / RFU, FAM179B / Fold change vs veh, FAM179B / RFU, BCL10 / Fold change vs veh, BCL10 / RFU, UHRF1BP1L / Fold change vs veh, UHRF1BP1L / RFU, BET1 / Fold change vs veh, BET1 / RFU, CNOT2 / Fold change vs veh, CNOT2 / RFU, ZNF268 / Fold change vs veh, ZNF268 / Fold change vs veh, ZNF507 / RFU, DGCR2 / Fold change vs veh, DGCR2 / RFU, WDSUB1 / Fold change vs veh, WDSUB1 / Fold change vs veh, HSP90B1 /// MIR3652 / RFU, ADSS / Fold change vs veh, ADSS / RFU, GK / Fold change vs veh, GK / RFU, ZNF148 / Fold change vs veh, ZNF148 / RFU, TAF9 / Fold change vs veh, TAF9 / RFU, SLC1A5 / Fold change vs veh, SLC1A5 / RFU, SLMO2 / Fold change vs veh, SLMO2 / RFU, ABCC4 / Fold change vs veh, ABCC4 / RFU, LOC101060439 /// RAP1B / Fold change vs veh, LOC101060439 /// RAP1B / RFU, RFX7 / Fold change vs veh, RFX7 / RFU, GTPBP10 / Fold change vs veh, GTPBP10 / RFU, CNEP1R1 / Fold change vs veh, CNEP1R1 / RFU, BIVM-ERCC5 /// ERCC5 / Fold change vs veh, BIVM-ERCC5 /// ERCC5 / RFU, ILF3 / Fold change vs veh, ILF3 / RFU 11762660_at / Fold change /veh 11762660_at / RFU VCAN (11757783_s_at) / Fold change /veh VCAN (11757783_s_at) / RFU DDX43 (11728927_at) / Fold change /veh DDX43 (11728927_at) / RFU KRT8 (11758188_x_at) / Fold change /veh KRT8 (11758188_x_at) / RFU NKD1 (11759106_at) / Fold change /veh NKD1 (11759106_at) / RFU SRD5A1 (11742802_a_at) / Fold change /veh SRD5A1 (11742802_a_at) / RFU TPSAB1 /// TPSB2 (11721975_s_at) / Fold change /veh TPSAB1 /// TPSB2 (11721975_s_at) / RFU GSTM3 (11746129_a_at) / Fold change /veh GSTM3 (11746129_a_at) / RFU IL23R (11737362_x_at) / Fold change /veh IL23R (11737362_x_at) / RFU TMEM51 (11727254_a_at) / Fold change /veh TMEM51 (11727254_a_at) / RFU PIWIL2 (11732686_x_at) / Fold change /veh PIWIL2 (11732686_x_at) / RFU ORM1 (11744905_x_at) / Fold change /veh ORM1 (11744905_x_at) / RFU CCDC152 (11743942_at) / Fold change /veh CCDC152 (11743942_at) / RFU ECM1 (11717891_a_at) / Fold change /veh ECM1 (11717891_a_at) / RFU IL23R (11748794_a_at) / Fold change /veh IL23R (11748794_a_at) / RFU TNFAIP8L3 (11732012_x_at) / Fold change /veh TNFAIP8L3 (11732012_x_at) / RFU MBOAT4 (11741988_at) / Fold change /veh MBOAT4 (11741988_at) / RFU 11764193_at / Fold change /veh 11764193_at / RFU TMEM53 (11763286_at) / Fold change /veh TMEM53 (11763286_at) / RFU MAGEB2 (11727129_at) / Fold change /veh MAGEB2 (11727129_at) / RFU TMEM200A (11744735_a_at) / Fold change /veh TMEM200A (11744735_a_at) / RFU CCDC152 (11751479_a_at) / Fold change /veh CCDC152 (11751479_a_at) / RFU FAM211A (11726209_a_at) / Fold change /veh FAM211A (11726209_a_at) / RFU RGS16 (11746705_a_at) / Fold change /veh RGS16 (11746705_a_at) / RFU VCAN (11755009_s_at) / Fold change /veh VCAN (11755009_s_at) / RFU RHOB (11743442_s_at) / Fold change /veh RHOB (11743442_s_at) / RFU RGS16 (11720943_a_at) / Fold change /veh RGS16 (11720943_a_at) / RFU RGS16 (11720944_at) / Fold change /veh RGS16 (11720944_at) / RFU, VPS4B / Fold change vs veh, VPS4B / RFU, CREB1 / Fold change vs veh, CREB1 / RFU, DNAJC13 / Fold change vs veh, DNAJC13 / RFU, GNAQ / Fold change vs veh, GNAQ / RFU, CDK5R1 / Fold change vs veh, CDK5R1 / RFU, ZRANB3 / Fold change vs veh, ZRANB3 / RFU, CUL4A / Fold change vs veh, CUL4A / RFU, CCNY / Fold change vs veh, CCNY / RFU, UFL1 / Fold change vs veh, UFL1 / RFU, COG3 / Fold change vs veh, COG3 / RFU, DIAPH2 / Fold change vs veh, DIAPH2 / RFU, SKA2 / Fold change vs veh, SKA2 / RFU, AFF3 / Fold change vs veh, AFF3 / RFU, LMF1 / Fold change vs veh, LMF1 / RFU, IPO11 / Fold change vs veh, IPO11 / RFU, DFFB / Fold change vs veh, DFFB / RFU, FOXP1 / Fold change vs veh, FOXP1 / RFU, CARD8 / Fold change vs veh, CARD8 / RFU, STRN3 / Fold change vs veh, STRN3 / RFU, ADK / Fold change vs veh, ADK / RFU, RASSF2 / Fold change vs veh, RASSF2 / RFU, WIPF1 / Fold change vs veh, WIPF1 / RFU, LARP1B / Fold change vs veh, LARP1B / RFU, RASA1 / Fold change vs veh, RASA1 / RFU, RB1 / Fold change vs veh, RB1 / RFU, PPFIA1 / Fold change vs veh, PPFIA1 / RFU, MAT2A / Fold change vs veh, MAT2A / RFU, CCT5 / Fold change vs veh, CCT5 / RFU, WDR92 / Fold change vs veh, WDR92 / RFU, CUX1 / Fold change vs veh, CUX1 / RFU, TTC7A / Fold change vs veh, TTC7A / RFU, TMEM135 / Fold change vs veh, TMEM135 / RFU, DEPTOR / Fold change vs veh, DEPTOR / RFU, CPM / Fold change vs veh, CPM / RFU, DNAJB6 / Fold change vs veh, DNAJB6 / RFU, CACNA2D3 / Fold change vs veh, CACNA2D3 / RFU, DTX4 / Fold change vs veh, DTX4 / RFU, TFCP2 / Fold change vs veh, TFCP2 / RFU, GMCL1 /// GMCL1P1 / Fold change vs veh, GMCL1 /// GMCL1P1 / RFU, AEBP2 / Fold change vs veh, AEBP2 / RFU, SNHG1 /// SNORD22 /// SNORD25 /// SNORD26 /// SNORD27 /// SNORD28 /// SNORD29 /// SNORD31 / Fold change vs veh, SNHG1 /// SNORD22 /// SNORD25 /// SNORD26 /// SNORD27 /// SNORD28 /// SNORD29 /// SNORD31 / Fold change (Aza/veh), C12orf56 (ProbeSet 11735607_a_at) / Fold change (ACY-1035/veh), C12orf56 (ProbeSet 11735607_a_at) / Fold change (Aza/veh), FGFR1OP (ProbeSet 11751329_s_at) / Fold change (ACY-1035/veh), FGFR1OP (ProbeSet 11751329_s_at) / Fold change (Aza/veh), VPS36 (ProbeSet 11739960_a_at) / Fold change (ACY-1035/veh), VPS36 (ProbeSet 11739960_a_at) / RFU SYPL1 (11715823_x_at) / Fold change /veh SYPL1 (11715823_x_at) / RFU IGFBP7 (11715501_s_at) / Fold change /veh IGFBP7 (11715501_s_at) / RFU REEP3 (11722064_at) / Fold change /veh REEP3 (11722064_at) / RFU IGLL1 (11728026_x_at) / Fold change /veh IGLL1 (11728026_x_at): dose or concentration left out as unconfirmed
# Settings: ProbeSet 11749477_a_at; LIST B
smiles,measurement,value
Nc1ccc(-c2cccs2)cc1NC(=O)c1ccc2c(c1)cc(C1CC1)n2CCN1CCOCC1 [ACY-1035],"RFU, EDEM3",51.94 RFU
